Values joined by “and” are separate entries in the source; they are usually repeats but may differ in a detail not shown here. Identical values can stand only once.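 Where inhibition never reached the appropriate level, the endpoint shown equals the highest concentration tested. Otherwise, values were interpolated linearly from a five-concentration, 48-hour dose response in 96-well plates. At the GI50, growth is halved. TGI is the concentration that stops growth completely.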
Assays:
Test in all cases: NCI-60 cell line screen, 48 h
EKVX NSCLC = tested on: EKVX NSCLC
NCI-H522 lung = tested on: NCI-H522 lung
SK-MEL-28 melanoma = tested on: SK-MEL-28 melanoma
U251 CNS = tested on: U251 CNS
UACC-257 melanoma = tested on: UACC-257 melanoma
UO-31 renal = tested on: UO-31 renal
COLO 205 colon = tested on: COLO 205 colon
RPMI-8226 leukemia = tested on: RPMI-8226 leukemia
HCC-2998 colon = tested on: HCC-2998 colon
MDA-MB-231 breast = tested on: MDA-MB-231 breast

SMILES | TGI (EKVX NSCLC) | TGI (NCI-H522 lung) | TGI (SK-MEL-28 melanoma) | TGI (U251 CNS) | TGI (UACC-257 melanoma) | TGI (UO-31 renal) | TGI (COLO 205 colon) | TGI (RPMI-8226 leukemia) | TGI (HCC-2998 colon) | GI50 (COLO 205 colon) | GI50 (EKVX NSCLC) | GI50 (HCC-2998 colon) | GI50 (NCI-H522 lung) | GI50 (RPMI-8226 leukemia) | GI50 (SK-MEL-28 melanoma) | GI50 (U251 CNS) | GI50 (UACC-257 melanoma) | GI50 (UO-31 renal) | GI50 (MDA-MB-231 breast) | TGI (MDA-MB-231 breast)
CC12CCCC(C#N)(C1)OC2=O (stereo not given) | > 100 µM | > 100 µM | > 100 µM | > 100 µM | > 100 µM | > 100 µM | – | – | – | – | – | – | – | – | – | – | – | – | – | –
CCc1cccc(C)c1N1C(=O)C(=O)C(c2nc3ccccc3o2)/C(=N/NC(=S)NN)C1=O (stereo not given) | > 100 µM | > 100 µM | > 100 µM | > 100 µM | > 100 µM | > 100 µM | > 100 µM | > 100 µM | – | – | – | – | – | – | – | – | – | – | – | –
O=C1C(Cl)=C(Cl)C(=O)N1c1ccccc1Cl | > 100 µM | 22.7 µM | > 100 µM | > 100 µM | > 100 µM | > 100 µM | > 100 µM | > 88.1 µM | > 100 µM | – | – | – | – | – | – | – | – | – | – | –
O=C(O)CCC(=O)Oc1ccc(O)c2c1CCCC2=O | > 100 µM | > 100 µM | > 100 µM | > 100 µM | > 100 µM | > 100 µM | > 100 µM | > 100 µM | > 100 µM | – | – | – | – | – | – | – | – | – | – | –
CCC[CH2][Sn]1([CH2]CCC)[O]C(=O)CN=C(C)c2ccccc2[O]1 | 2.99 µM | 0.369 µM | 2.11 µM | 2.3 µM | 2.2 µM | 2.63 µM | 1.9 µM | 2.8 µM | 2.92 µM | 0.569 µM | 1.48 µM | 1.53 µM | 0.179 µM | 0.468 µM | 0.868 µM | 1.1 µM | 0.955 µM | 1.32 µM | – | –
CN1C(c2ccccc2)CC(C)(O)CC1c1ccccc1 (stereo not given) | > 100 µM | > 100 µM | > 100 µM | > 100 µM | > 100 µM | > 100 µM | > 100 µM | > 100 µM | > 100 µM | – | – | – | – | – | – | – | – | – | – | –
O=C(CC(=O)N1N=C(n2ccc3ccccc32)CC1c1ccccc1)Nc1ccc(Cl)cc1 (stereo not given) | > 100 µM | > 100 µM | > 100 µM | > 100 µM | > 100 µM | > 100 µM | > 100 µM | > 100 µM | > 100 µM | – | – | – | – | – | – | – | – | – | – | –
CCSc1nc(NC(C)c2ccccc2)c2cnn(CO)c2n1 (stereo not given) | – | > 100 µM | > 100 µM | > 100 µM | > 100 µM | > 100 µM | > 100 µM | > 100 µM | – | > 100 µM | – | – | 14.7 µM | > 100 µM | 87.2 µM | 74.8 µM | 6.91 µM | 66.5 µM | 61.8 µM | > 100 µM
COc1ccc(C2=NN(C=O)C(c3ccc(OS(=O)(=O)c4ccc(C)cc4)c(OC)c3)C2)cc1 (stereo not given) | – | 90.4 µM | > 100 µM | – | > 100 µM | > 100 µM | > 100 µM | > 100 µM | > 100 µM | 8.44 µM | – | > 100 µM | 4.22 µM | 4.12 µM | 10.6 µM | – | 4.22 µM | 3.39 µM | 5.52 µM | > 100 µM
CC(=O)N(C)c1cc(NCc2ccccc2)ccc1OCc1ccccc1 | 42.3 µM | 34 µM | 35.4 µM | 32.9 µM | 31.1 µM | 28 µM | 54.8 µM | – | 35 µM | – | – | – | – | – | – | – | – | – | – | 30.2 µM
N#CC(C(=O)/C(=N/NC(=O)c1ccccc1O)C(C#N)c1ccc(Br)cc1)c1ccc(Br)cc1 (stereo not given) | 30 µM | 27.7 µM | 28.2 µM | 23.7 µM | 29.5 µM | 26.1 µM | 30.1 µM | – | 24.7 µM | – | – | – | – | – | – | – | – | – | – | –
COc1cccc(CCNC(=O)CC(c2ccccc2)(c2ccccc2)c2ccccc2)c1 | > 100 µM | – | > 100 µM | 55.6 µM | – | > 100 µM | > 100 µM | > 100 µM | – | 12.8 µM | 22.7 µM | – | – | 4.98 µM | > 100 µM | 4.86 µM | – | 4.75 µM | > 100 µM | > 100 µM
COC(=O)C(=NNc1ccccc1[N+](=O)[O-])C(=O)OC | > 100 µM | > 100 µM | > 100 µM | > 100 µM | > 100 µM | – | > 100 µM | – | > 100 µM | – | – | – | – | – | – | – | – | – | – | –
COC(=O)[C@H](Cc1ccccc1)NNC(=O)c1csc([C@@H](C[C@H](C(C)C)N(C)C(=O)[C@@H](NC(=O)[C@H]2CCCCN2C)C2CC2)OC(C)=O)n1 | > 100 µM | – | 25 µM and > 100 µM | 25 µM and > 100 µM | > 100 µM | 25 µM and > 100 µM | – | 25 µM and > 100 µM | 25 µM and > 100 µM | – | – | – | 0.00154 µM and 0.0144 µM | – | – | – | – | – | – | –
O=C[C@]12CC=C3OC4OC5(CCCCC5)OC4[C@H]3[C@H]1C(=O)C=CC2=O (stereo not given in full) | 39.8 µM | 22.1 µM | 96.3 µM | 64.6 µM | 45.3 µM | 40.8 µM | – | – | 90.8 µM | – | – | – | – | – | – | – | – | – | – | –
O=C(/C=C\c1cc(Br)ccc1O)/C=C/c1cc(Br)ccc1O | 3.18 µM | – | 1.96 µM | 1.55 µM | 4.09 µM | 2.2 µM | 3.69 µM | 1.4 µM | 2.89 µM | 1.55 µM | 1.54 µM | 1.51 µM | – | 0.3 µM | 0.555 µM | 0.383 µM | 1.54 µM | 0.882 µM | 0.372 µM | 4.07 µM
N.N.N.N.N.N#Cc1nn[n-]n1.[Cl-].[Co+3] | > 100 µM | – | > 100 µM | > 100 µM | > 100 µM | > 100 µM | > 100 µM | > 100 µM | > 100 µM | > 100 µM | > 100 µM | > 100 µM | – | > 100 µM | > 100 µM | > 100 µM | > 100 µM | > 100 µM | – | –
CCC(C)C(=O)O[C@H]1C(=O)O[C@@H]2C[C@H]3C(C)=CC(=O)[C@@H](O)[C@]3(C)[C@H]3[C@@H](O)[C@H](O)[C@@]4(C)OC[C@]32[C@@H]14 (stereo not given in full) | – | 0.0773 µM | 0.542 µM | < 0.0345 µM | < 0.01 µM | 0.0859 µM | 0.278 µM | < 0.0266 µM | < 0.024 µM | – | – | – | – | – | – | – | – | – | – | 0.388 µM
N#CCCN(C1=NN(C(=O)CC(=O)Nc2ccc(Cl)cc2)C(c2ccccc2)C1)c1ccc(Cl)cc1 (stereo not given) | > 100 µM | > 100 µM | > 100 µM | > 100 µM | > 100 µM | > 100 µM | > 100 µM | > 100 µM | > 100 µM | – | – | – | – | – | – | – | – | – | – | –

Source: PubChem BioAssay (NCI)
